According to the NIST ThermoML archive (doi:10.1021/je900938b):
± gives the expanded uncertainty stated by the source.

Experiment: xn = mol fraction of the nth substance listed
Settings: 101 kPa, Liquid; for mass density: Pycnometric method

OCC(O)CO [glycerol] + OCCO
Settings | mass density [kg/m3] | viscosity [mPa·s]
298.15 K, x1 = 0.1001 | 1129.2 ± 11 | 25.1 ± 0.58
298.15 K, x1 = 0.2002 | 1147.2 ± 12 | 37.4 ± 0.86
298.15 K, x1 = 0.3001 | 1164 ± 12 | 55 ± 1.3
298.15 K, x1 = 0.4002 | 1180.2 ± 12 | 82.8 ± 2.2
298.15 K, x1 = 0.4991 | 1195 ± 12 | 121.4 ± 3.9
298.15 K, x1 = 0.6011 | 1209.4 ± 12 | 184.2 ± 7.4
298.15 K, x1 = 0.7015 | 1222.6 ± 12 | 272.9 ± 13
298.15 K, x1 = 0.7981 | 1234.5 ± 12 | 405.9 ± 24
298.15 K, x1 = 0.8961 | 1246.1 ± 12 | 611.8 ± 42
298.15 K, x1 = 1 | 1257.8 ± 13 | 943.8 ± 76
303.15 K, x1 = 0.1001 | 1126.3 ± 11 | 20.7 ± 0.46
303.15 K, x1 = 0.2002 | 1144.4 ± 12 | 30.3 ± 0.69
303.15 K, x1 = 0.3001 | 1161.2 ± 12 | 43.1 ± 1
303.15 K, x1 = 0.4002 | 1177.3 ± 12 | 64.2 ± 1.5
303.15 K, x1 = 0.4991 | 1192.2 ± 12 | 91.4 ± 2.5
303.15 K, x1 = 0.6011 | 1206.7 ± 12 | 134 ± 4.6
303.15 K, x1 = 0.7015 | 1219.7 ± 12 | 195 ± 8.1
303.15 K, x1 = 0.7981 | 1231.5 ± 12 | 285.9 ± 14
303.15 K, x1 = 0.8961 | 1243.2 ± 12 | 422.7 ± 25
303.15 K, x1 = 1 | 1254.7 ± 13 | 628.9 ± 44
308.15 K, x1 = 0.1001 | 1122.9 ± 11 | 17 ± 0.38
308.15 K, x1 = 0.2002 | 1141.2 ± 11 | 24.1 ± 0.55
308.15 K, x1 = 0.3001 | 1158.2 ± 12 | 33.9 ± 0.78
308.15 K, x1 = 0.4002 | 1174.5 ± 12 | 48.5 ± 1.1
308.15 K, x1 = 0.4991 | 1189.5 ± 12 | 69.4 ± 1.7
308.15 K, x1 = 0.6011 | 1204 ± 12 | 100.2 ± 2.9
308.15 K, x1 = 0.7015 | 1217 ± 12 | 142.4 ± 5
308.15 K, x1 = 0.7981 | 1229.1 ± 12 | 206.2 ± 8.8
308.15 K, x1 = 0.8961 | 1240.7 ± 12 | 299.9 ± 15
308.15 K, x1 = 1 | 1252.2 ± 12 | 431.9 ± 26
313.15 K, x1 = 0.1001 | 1119.9 ± 11 | 14 ± 0.31
313.15 K, x1 = 0.2002 | 1138.2 ± 11 | 19.6 ± 0.44
313.15 K, x1 = 0.3001 | 1155.2 ± 12 | 27 ± 0.62
313.15 K, x1 = 0.4002 | 1171.6 ± 12 | 38.2 ± 0.88
313.15 K, x1 = 0.4991 | 1186.7 ± 12 | 52.6 ± 1.2
313.15 K, x1 = 0.6011 | 1201.3 ± 12 | 75.2 ± 1.9
313.15 K, x1 = 0.7015 | 1214.3 ± 12 | 107 ± 3.2
313.15 K, x1 = 0.7981 | 1226.5 ± 12 | 145.2 ± 5.2
313.15 K, x1 = 0.8961 | 1238 ± 12 | 204.6 ± 8.8
313.15 K, x1 = 1 | 1249.4 ± 12 | 295.9 ± 15
318.15 K, x1 = 0.1001 | 1116.3 ± 11 | 11.7 ± 0.26
318.15 K, x1 = 0.2002 | 1134.7 ± 11 | 16.1 ± 0.36
318.15 K, x1 = 0.3001 | 1151.8 ± 12 | 21.7 ± 0.49
318.15 K, x1 = 0.4002 | 1168.2 ± 12 | 30.6 ± 0.7
318.15 K, x1 = 0.4991 | 1183.3 ± 12 | 41.1 ± 0.94
318.15 K, x1 = 0.6011 | 1197.8 ± 12 | 57.3 ± 1.3
318.15 K, x1 = 0.7015 | 1210.9 ± 12 | 81 ± 2.1
318.15 K, x1 = 0.7981 | 1223.1 ± 12 | 108.2 ± 3.3
318.15 K, x1 = 0.8961 | 1234.7 ± 12 | 148.4 ± 5.3
318.15 K, x1 = 1 | 1245.8 ± 12 | 185.8 ± 7.7
323.15 K, x1 = 0.1001 | 1113.4 ± 11 | 9.65 ± 0.21
323.15 K, x1 = 0.2002 | 1131.8 ± 11 | 13.1 ± 0.29
323.15 K, x1 = 0.3001 | 1148.7 ± 12 | 17.9 ± 0.4
323.15 K, x1 = 0.4002 | 1165.2 ± 12 | 24.4 ± 0.55
323.15 K, x1 = 0.4991 | 1180.1 ± 12 | 33.6 ± 0.76
323.15 K, x1 = 0.6011 | 1194.6 ± 12 | 45.3 ± 1
323.15 K, x1 = 0.7015 | 1207.9 ± 12 | 62 ± 1.4
323.15 K, x1 = 0.7981 | 1219.9 ± 12 | 82.4 ± 2.1
323.15 K, x1 = 0.8961 | 1231.2 ± 12 | 111 ± 3.4
323.15 K, x1 = 1 | 1242.3 ± 12 | 151.2 ± 5.4
328.15 K, x1 = 0.1001 | 1109.4 ± 11 | 8.31 ± 0.18
328.15 K, x1 = 0.2002 | 1128 ± 11 | 11 ± 0.24
328.15 K, x1 = 0.3001 | 1145.1 ± 12 | 14.6 ± 0.33
328.15 K, x1 = 0.4002 | 1161.7 ± 12 | 20.1 ± 0.45
328.15 K, x1 = 0.4991 | 1176.7 ± 12 | 26.5 ± 0.61
328.15 K, x1 = 0.6011 | 1191.4 ± 12 | 36 ± 0.83
328.15 K, x1 = 0.7015 | 1204.7 ± 12 | 48.1 ± 1.1
328.15 K, x1 = 0.7981 | 1216.9 ± 12 | 64.4 ± 1.5
328.15 K, x1 = 0.8961 | 1228.3 ± 12 | 84.6 ± 2.2
328.15 K, x1 = 1 | 1239.3 ± 12 | 108.4 ± 3.3
333.15 K, x1 = 0.1001 | 1106 ± 11 | 7.06 ± 0.16
333.15 K, x1 = 0.2002 | 1124.6 ± 11 | 9.17 ± 0.2
333.15 K, x1 = 0.3001 | 1141.8 ± 11 | 12.4 ± 0.27
333.15 K, x1 = 0.4002 | 1158.4 ± 12 | 16.4 ± 0.37
333.15 K, x1 = 0.4991 | 1173.5 ± 12 | 21.5 ± 0.48
333.15 K, x1 = 0.6011 | 1188.2 ± 12 | 28.4 ± 0.65
333.15 K, x1 = 0.7015 | 1201.5 ± 12 | 37.6 ± 0.86
333.15 K, x1 = 0.7981 | 1213.8 ± 12 | 49.4 ± 1.1
333.15 K, x1 = 0.8961 | 1225.3 ± 12 | 66.2 ± 1.6
333.15 K, x1 = 1 | 1236.1 ± 12 | 84.8 ± 2.2
338.15 K, x1 = 0.1001 | 1102.8 ± 11 | 6.1 ± 0.13
338.15 K, x1 = 0.2002 | 1121.4 ± 11 | 7.81 ± 0.17
338.15 K, x1 = 0.3001 | 1138.6 ± 11 | 10.5 ± 0.23
338.15 K, x1 = 0.4002 | 1155.1 ± 12 | 13.8 ± 0.3
338.15 K, x1 = 0.4991 | 1170.2 ± 12 | 18.1 ± 0.4
338.15 K, x1 = 0.6011 | 1185 ± 12 | 23.5 ± 0.52
338.15 K, x1 = 0.7015 | 1198.3 ± 12 | 30.7 ± 0.69
338.15 K, x1 = 0.7981 | 1210.6 ± 12 | 39.5 ± 0.9
338.15 K, x1 = 0.8961 | 1222.2 ± 12 | 50.9 ± 1.2
338.15 K, x1 = 1 | 1232.8 ± 12 | 62.2 ± 1.6
